From article PMC6323127 (Saudi Pharmaceutical Journal : SPJ, 2018)
≈ marks a conversion by molar mass, not a printed value.

Tests used:
[1] = target: T1, CYP1A2 (Homo sapiens, UniProt P05177); conditions: for relative potency (AEM IC50)/(other anthraquinone IC50), CYP1A2-mediated caffeine demethylation: AEM as reference chemical; for inhibitor strength toward CYP1A2 activity (in words): human liver microsomes
T1 sequence (P05177 1-516): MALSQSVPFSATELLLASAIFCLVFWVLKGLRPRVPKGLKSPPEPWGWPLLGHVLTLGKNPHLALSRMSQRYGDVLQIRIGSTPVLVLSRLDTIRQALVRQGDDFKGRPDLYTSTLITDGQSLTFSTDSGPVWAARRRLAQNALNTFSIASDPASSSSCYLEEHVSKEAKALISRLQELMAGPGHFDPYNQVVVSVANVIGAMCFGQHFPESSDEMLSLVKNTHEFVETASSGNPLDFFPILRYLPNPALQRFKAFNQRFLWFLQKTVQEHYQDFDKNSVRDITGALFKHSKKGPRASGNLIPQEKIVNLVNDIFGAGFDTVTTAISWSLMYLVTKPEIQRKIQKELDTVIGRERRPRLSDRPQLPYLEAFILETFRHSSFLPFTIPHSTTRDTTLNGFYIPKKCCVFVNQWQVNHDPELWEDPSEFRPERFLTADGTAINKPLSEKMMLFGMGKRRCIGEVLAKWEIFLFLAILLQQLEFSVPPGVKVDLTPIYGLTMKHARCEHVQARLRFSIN

[2] = target: T2, CYP3A4 (Homo sapiens, UniProt P08684); conditions: for relative potency (AEM IC50)/(other anthraquinone IC50), CYP3A4-mediated erythromycin demethylation: AEM as reference chemical; for inhibitor strength toward CYP3A4 activity (in words): human liver microsomes
T2 sequence (P08684 whole entry): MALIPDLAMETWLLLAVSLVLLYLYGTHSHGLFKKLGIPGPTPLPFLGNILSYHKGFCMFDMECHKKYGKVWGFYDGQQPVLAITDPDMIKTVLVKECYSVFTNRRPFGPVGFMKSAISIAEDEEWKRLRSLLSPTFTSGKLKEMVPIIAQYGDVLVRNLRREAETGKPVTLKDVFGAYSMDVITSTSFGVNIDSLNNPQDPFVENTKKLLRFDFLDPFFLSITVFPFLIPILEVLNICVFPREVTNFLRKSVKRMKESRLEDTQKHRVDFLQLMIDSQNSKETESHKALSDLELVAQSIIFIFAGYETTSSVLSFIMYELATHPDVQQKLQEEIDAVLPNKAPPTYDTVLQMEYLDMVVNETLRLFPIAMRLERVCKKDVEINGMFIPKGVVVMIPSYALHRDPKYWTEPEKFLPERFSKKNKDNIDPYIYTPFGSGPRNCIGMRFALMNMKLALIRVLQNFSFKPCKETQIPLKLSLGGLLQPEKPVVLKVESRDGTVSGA

[3] = target: T1, CYP1A2; test: biochemical
[4] = target: T2, CYP3A4; test: biochemical
[5] = target: T1, CYP1A2; test: in vitro; conditions: microsomes, pH 7.4
[6] = system: CYP1A1/2; conditions: in vitro; ref Ayrton et al., 1987; cited from earlier work

relative potency (AEM IC50)/(other anthraquinone IC50), CYP1A2-mediated caffeine demethylation [1] [unitless]	slope of CYP1A2 inhibition-log concentration (or dilution volume) curve ([1]; Fig. 5)	inhibitor strength toward CYP1A2 activity (in words) [1]	relative potency (AEM IC50)/(other anthraquinone IC50), CYP3A4-mediated erythromycin demethylation [2] [unitless]	inhibitor strength toward CYP3A4 activity (in words) [2]	IC50 [3] [µM]	IC50 [4] [µM]	IC50 [5] [µg/mL]	SMILES	inhibitor strength toward rat liver microsomal CYP1A1/2 activity (in words) [6]
–	–	moderate inhibitor	–	moderate inhibitor	33.1	–	–	O=C(O)c1cc(O)c2c(c1)[C@@H]([C@H]1c3cc(C(=O)O)cc(O)c3C(=O)c3c(O[C@@H]4O[C@H](CO)[C@@H](O)[C@H](O)[C@H]4O)cccc31)c1cccc(O[C@@H]3O[C@H](CO)[C@@H](O)[C@H](O)[C@H]3O)c1C2=O [Sennoside B]	–
–	–	weak inhibitor	–	weak inhibitor	> 155	–	–	O=C(O)c1cc(O)c2c(c1)[C@H]([C@H]1c3cc(C(=O)O)cc(O)c3C(=O)c3c(O[C@@H]4O[C@H](CO)[C@@H](O)[C@H](O)[C@H]4O)cccc31)c1cccc(O[C@@H]3O[C@H](CO)[C@@H](O)[C@H](O)[C@H]3O)c1C2=O [Sennoside A]	–
0.98	–	potent inhibitors	< 0.04	–	–	> 220	0.43 (≈ 1.51 µM)	COc1cc(O)c2c(c1)C(=O)c1cc(C)cc(O)c1C2=O [Physcion]	–
0.68	–	potent inhibitors	0.08	weak inhibitors	2.18	97.6	–	O=C(O)c1cc(O)c2c(c1)C(=O)c1cccc(O)c1C2=O [Rhein]	–

Continued, molecule first:

SMILES	relative potency (AEM IC50)/(other anthraquinone IC50), CYP1A2-mediated caffeine demethylation [1] [unitless]	slope of CYP1A2 inhibition-log concentration (or dilution volume) curve ([1]; Fig. 5)	inhibitor strength toward CYP1A2 activity (in words) [1]	relative potency (AEM IC50)/(other anthraquinone IC50), CYP3A4-mediated erythromycin demethylation [2] [unitless]	inhibitor strength toward CYP3A4 activity (in words) [2]	IC50 [3] [µM]	IC50 [4] [µM]	IC50 [5] [µg/mL]	inhibitor strength toward rat liver microsomal CYP1A1/2 activity (in words) [6]
O=C1c2cccc(O)c2C(=O)c2c(O)cc(CO)cc21 [Aloe-emodin]	1.00	1.74	potent inhibitors	1.00	moderate inhibitors	1.55	8.29	–	–
Cc1cc(O)c2c(c1)C(=O)c1cc(O)cc(O)c1C2=O [Emodin]	0.02	–	weak CYP1A2 inhibitor	0.55	moderate inhibitors	67	15.2	–	–
O=C1c2ccc(O)cc2C(=O)c2ccc(O)cc21 [2,6-dihydroxyanthraquinone]	–	–	–	–	–	–	–	–	potent inhibitor
Cc1cc(O)c2c(c1)C(=O)c1cccc(O)c1C2=O [Chrysophanol]	–	–	potent inhibitors	–	–	1.73	–	–	–
